These are literature values, as cited in patent publication US7867716B2 (priority 2004, dated 2011).

One data set concerns the target WT-αHL (Staphylococcus aureus, UniProt P09616).
The next data set has as its target glucoamylase (Aspergillus niger, UniProt P69328).

Chain of WT-αHL (P09616 27-319 limits assumed): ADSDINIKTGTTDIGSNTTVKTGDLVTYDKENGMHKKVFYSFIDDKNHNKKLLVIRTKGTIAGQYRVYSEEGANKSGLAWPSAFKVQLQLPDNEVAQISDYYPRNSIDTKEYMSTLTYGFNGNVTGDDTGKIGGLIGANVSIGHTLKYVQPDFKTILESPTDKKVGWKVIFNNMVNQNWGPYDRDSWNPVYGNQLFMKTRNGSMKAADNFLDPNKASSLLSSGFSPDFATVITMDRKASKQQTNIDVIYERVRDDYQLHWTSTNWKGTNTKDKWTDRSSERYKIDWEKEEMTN
Chain of glucoamylase (P69328 25-640 limits assumed): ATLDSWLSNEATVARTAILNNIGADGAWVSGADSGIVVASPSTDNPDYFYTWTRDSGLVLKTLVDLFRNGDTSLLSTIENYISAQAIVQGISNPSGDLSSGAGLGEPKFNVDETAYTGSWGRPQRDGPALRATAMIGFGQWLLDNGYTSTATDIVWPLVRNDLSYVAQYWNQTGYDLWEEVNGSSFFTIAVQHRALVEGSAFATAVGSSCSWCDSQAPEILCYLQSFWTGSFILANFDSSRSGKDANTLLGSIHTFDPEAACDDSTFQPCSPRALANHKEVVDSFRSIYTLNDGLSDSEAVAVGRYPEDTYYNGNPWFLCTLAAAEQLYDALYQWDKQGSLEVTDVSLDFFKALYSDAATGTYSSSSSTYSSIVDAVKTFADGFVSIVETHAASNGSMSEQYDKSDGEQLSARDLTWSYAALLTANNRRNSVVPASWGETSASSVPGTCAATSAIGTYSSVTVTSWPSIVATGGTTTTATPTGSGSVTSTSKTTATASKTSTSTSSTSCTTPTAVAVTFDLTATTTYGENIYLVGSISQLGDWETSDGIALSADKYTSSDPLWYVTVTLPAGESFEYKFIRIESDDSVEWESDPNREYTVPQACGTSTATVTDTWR

With β-cyclodextrin [βCD], on WT-αHL, the “Kf (trans)” value was 300 M⁻¹ and the “formation constant Kf for WT-αHL with βCD” value is 290 M⁻¹. For the same substance, the “ΔS°” value at glucoamylase is listed as −90 J mol^−1 K^−1.
